Assay: xn = mol fraction of the nth substance listed

Clc1ccccc1 + CC(C)CO
viscosity [mPa·s], 101.33 kPa
Conditions	x1 = 0.101	x1 = 0.2015	x1 = 0.2966	x1 = 0.4019	x1 = 0.4952	x1 = 0.5979	x1 = 0.6965	x1 = 0.8009	x1 = 0.8977
298.15 K	2.558	1.975	1.593	1.301	1.124	0.9772	0.8803	0.8094	0.7666
313.15 K	1.663	1.336	1.128	0.9531	0.8497	0.7614	0.7035	0.6586	0.633

COC(C)(C)C + CC(C)O
101 kPa
Conditions	viscosity [mPa·s]
293.15 K, x1 = 0.0305	2.145
298.15 K, x1 = 0.0702	1.595
303.15 K, x1 = 0.0702	1.395
308.15 K, x1 = 0.0914	1.145

COCCOCCOCCOCCOC + CC(C)O
viscosity [mPa·s], 101 kPa
Conditions	x1 = 0.0021	x1 = 0.0042	x1 = 0.00994	x1 = 0.014	x1 = 0.0152	x1 = 0.025	x1 = 0.0355	x1 = 0.0719	x1 = 0.0734	x1 = 0.0994
298.15 K	2.074	2.059	2.022	1.999	1.996	1.934	1.941	1.86	1.883	1.83
308.15 K	1.555	1.549	1.53	1.52	1.52	1.512	1.484	1.465	1.489	1.444
318.15 K	1.188	1.185	1.179	1.177	1.18	1.18	1.172	1.163	1.167	1.159

CC(O)C(=O)O (configuration not stated) + CC(C)[C@@H]1CC[C@@H](C)C[C@H]1O
100 kPa, x2 = 0.67
Conditions	viscosity [mPa·s]
293.15 K	370.9
298.15 K	218.9
303.15 K	134.3
308.15 K	86.53
313.15 K	58.84
318.15 K	40.71
323.15 K	29.47

CCc1ccccc1 + CCC(C)=O
298.15 K, 101.33 kPa
Conditions	viscosity [mPa·s]
x1 = 0.0811	0.397
x1 = 0.1608	0.416
x1 = 0.2397	0.433
x1 = 0.347	0.459
x1 = 0.4606	0.487
x1 = 0.5818	0.516
x1 = 0.7041	0.548
x1 = 0.8394	0.587

Clc1ccccc1 + CCC(C)=O
303.15 K, 101 kPa
Conditions	viscosity [mPa·s]
x2 = 0.0982	0.686
x2 = 0.247	0.636
x2 = 0.3771	0.593
x2 = 0.5481	0.541
x2 = 0.6776	0.499
x2 = 0.8508	0.482

COC(C)(C)C + CCC(C)O
298.15 K, 101 kPa
Conditions	viscosity [mPa·s]
x1 = 0.0999	2.16
x1 = 0.1992	1.57
x1 = 0.2992	1.16
x1 = 0.3976	0.91
x1 = 0.503	0.725
x1 = 0.6017	0.609
x1 = 0.6989	0.518
x1 = 0.7986	0.443
x1 = 0.8979	0.384
